These results are taken from patent US4206215A, “Antimicrobial bis-[4-(substituted-amino)-1-pyridinium]alkanes” (Sterling Drug Inc., priority 1977, dated 1980).

Structures are written as SMILES.

One assay deals with C. albicans Wisc. The experiment in a line: In vitro antifungal activity, MIC (modified Autotiter method). The class given is cell-based, Candida albicans. As to conditions: 18-20 hours at 37° C.; for MIC: Candida albicans, 20 h, read-out: MIC C. albicans Wisc. The essentials:
(§1)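 MIC by modified Autotiter twofold broth dilution from a 1,000 mcg./ml. compound solution in inoculated semisynthetic glucose medium. Final drug concentrations ranged from 500 to 0.06 mcg./ml.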

Another assay concerns C. albicans 10231. The assay is described as above. The class given is cell-based, Candida albicans. The note with it: Candida albicans, 10231, 20 h, 18-20 hours at 37° C.; read-out: MIC C. albicans 10231. The essentials: as §1
For the next assay, the system named is S. pyogen. C203. Nature of the assay: In vitro antibacterial activity, MIC (modified Autotiter method). As to conditions: 18-20 hours at 37° C.; for MIC: Streptococcus pyogenes, 20 h, read-out: MIC S. pyogen. C203. The class given is cell-based, Streptococcus pyogenes. A digest of the protocol: as §1
Another assay has as its system E. coli AB1932-1. Described as above. As to conditions: 18-20 hours at 37° C.; for MIC: Escherichia coli, AB19321, 20 h, read-out: MIC E. coli AB1932-1. The class given is cell-based, Escherichia coli. The essentials: as §1
Another assay relates to E. coli 100/B22. Described as above. The class given is cell-based, Escherichia coli. As to conditions: for MIC: Escherichia coli, 100/B22, 20 h, read-out: MIC E. coli 100/B22, 18-20 hours at 37° C.; for MIC E. coli 100/B22: 18-20 hours at 37° C. The essentials:
as §1

Another assay deals with E. coli Vogel. The description is as above. The assay is classed as cell-based, Escherichia coli. As to conditions: 18-20 hours at 37° C.; for MIC: Escherichia coli, 20 h, read-out: MIC E. coli Vogel. A digest of the protocol:
as §1

For the next assay, the system named is K. pneum. 39645. Described as above. The class given is cell-based, Klebsiella pneumoniae. The note with it: Klebsiella pneumoniae, 20 h, 18-20 hours at 37° C.; read-out: MIC K. pneum. 39645. A digest of the protocol:
as §1

In the next assay the test system is Ps. aerug. MGH-2. Described as above. The assay is classed as cell-based, Pseudomonas aeruginosa. The note with it: Pseudomonas aeruginosa, 20 h, 18-20 hours at 37° C.; read-out: MIC Ps. aerug. MGH-2. A digest of the protocol: as §1
The next assay relates to P. mirab. MGH-1. The assay is described as above. As to conditions: 18-20 hours at 37° C.; for MIC: Proteus mirabilis, 20 h, read-out: MIC P. mirab. MGH-1. The assay is classed as cell-based, Proteus mirabilis. The essentials: as §1

In the case of `CCCCCCCNc1cc[n+](CCCCCCCCC[n+]2ccc(NCCCCCCC)cc2)cc1` [Example 24, 1,9-bis-[4-(heptylamino)-1-pyridinium]nonane dibromide], the MIC was determined as 1 µg/mL with C. albicans Wisc.; 1 µg/mL in the assay on C. albicans 10231; 0.5 µg/mL in the assay on S. pyogen. C203; 1 µg/mL in the assay with E. coli AB1932-1; 1.95 µg/mL in the assay with E. coli 100/B22; 1 µg/mL in the assay on E. coli Vogel. Further, the figures for the MIC with K. pneum. 39645 and with Ps. aerug. MGH-2 were 1.95 µg/mL and 62.5 µg/mL, respectively. In addition, in the assay with P. mirab. MGH-1, the “MIC P. mirab. MGH-1” value was 15.6 µg/mL.

For `CCCCC(CC)CNc1cc[n+](CCCCCCCCCC[n+]2ccc(NCC(CC)CCCC)cc2)cc1` (stereo not drawn) [Example 58, 1,10-bis-[4-(2-ethylhexylamino)-1-pyridinium]decane dibromide], the MIC came to 1.5 µg/mL in the assay with C. albicans Wisc.; 3 µg/mL in the assay with C. albicans 10231; 1.95 µg/mL in the assay with S. pyogen. C203; 0.76 µg/mL with E. coli 100/B22; 1.5 µg/mL in the assay with E. coli Vogel; 3 µg/mL in the assay on K. pneum. 39645. Besides, the MIC was 48.4 µg/mL with Ps. aerug. MGH-2 and 12.1 µg/mL in the assay with P. mirab. MGH-1. Further, the “MIC E. coli AB1932-1” value against E. coli AB1932-1 was determined as 0.37 µg/mL.

Take `CCCCCCCNc1cc[n+](CCCCCCCCCCCC[n+]2ccc(NCCCCCCC)cc2)cc1` [Example 3, 1,12-bis-[4-(heptylamino)-1-pyridinium]dodecane dibromide]: the MIC with C. albicans Wisc. amounted to 3.13 µg/mL; in the assay with C. albicans 10231, 1.56 µg/mL; in the assay with K. pneum. 39645 it was 3.13 µg/mL; in the assay on Ps. aerug. MGH-2, 6.25 µg/mL; with P. mirab. MGH-1 it was 3.13 µg/mL. For the same compound, the “MIC S. pyogen. C203” value in the assay on S. pyogen. C203 turned out to be 0.39 µg/mL. The “MIC E. coli AB1932-1” value in the assay on E. coli AB1932-1 stood at 6.25 µg/mL. Moreover, in the assay on E. coli 100/B22, the “MIC E. coli 100/B22” value turned out to be 3.13 µg/mL. Further, in the assay with E. coli Vogel, the “MIC E. coli Vogel” value was determined as 1.56 µg/mL.

With `CCCCCCCCNc1cc[n+](CCCCCCCC[n+]2ccc(NCCCCCCCC)cc2)cc1` [Example 11, 1,8-bis-[4-(octylamino)-1-pyridinium]octane dibromide], the MIC came out at 1 µg/mL in the assay on C. albicans Wisc.; 1 µg/mL in the assay on C. albicans 10231; 1 µg/mL in the assay with S. pyogen. C203; 1 µg/mL in the assay on E. coli AB1932-1; 1 µg/mL in the assay on E. coli Vogel; 1.95 µg/mL in the assay on K. pneum. 39645. The MIC in the assay with Ps. aerug. MGH-2 was 15.6 µg/mL; with P. mirab. MGH-1 it was 7.8 µg/mL. Further, in the assay with E. coli 100/B22, the “MIC E. coli 100/B22” value is 1.95 µg/mL.

As for `CCCCCCNc1cc[n+](CCCCCCCCCCCCCC[n+]2ccc(NCCCCCC)cc2)cc1` [Example 5C, 1,14-bis-[4-(hexylamino)-1-pyridinium]tetradecane dibromide], in the assay with C. albicans Wisc. (listed as SC), the “MIC C. albicans Wisc.” value came to 0.76 µg/mL. In addition, the MIC in the assay with C. albicans 10231 came to 1.5 µg/mL; in the assay on S. pyogen. C203, 1 µg/mL; with E. coli AB1932-1, 0.76 µg/mL; in the assay on E. coli 100/B22, 0.76 µg/mL; with E. coli Vogel it was 0.76 µg/mL; with K. pneum. 39645, 0.76 µg/mL. Further, in the assay on Ps. aerug. MGH-2, the MIC was 6 µg/mL. Besides, the “MIC P. mirab. MGH-1” value with P. mirab. MGH-1 (listed as SC) was found to be 1.5 µg/mL.
